In US12440498B2 (priority 2020, dated 2025):
Read-outs that look alike come from different tables or passages of the source.

Tests used:
[1] = test system: influenza; settings: human, in vivo; cited from earlier work
[2] = human, in vivo; cited from earlier work
[3] = test system: A/H3N2 (A/Texas/50/2012 H3N2); format: cell-based, influenza A virus
[4] = test system: recombinant A/H1N1 pdm09 wildtype (WT); format: cell-based
[5] = test system: A/H1N1nLuc recombinant virus; assay: microbe, parasite or virus in culture; format: cell-based, influenza A virus
[6] = in vivo; cited from earlier work
[7] = test system: A/H1N1 virus; assay: microbe, parasite or virus in culture; format: cell-based, influenza A virus
[8] = test system: A/H1N1 pdm09 (A/Lyon/969/2009 H1N1); format: cell-based, influenza A virus
[9] = test system: flu virus; settings: human, in vivo, po; cited from earlier work

For `COC(=O)OCOc1c2n(ccc1=O)N([C@@H]1c3ccccc3SCc3c1ccc(F)c3F)[C@@H]1COCCN1C2=O` [baloxavir marboxil], the “median time to cessation of viral shedding” value [1] is given as 48 h and the “patients with mainly digestive side effects (nausea, diarrhea, etc.)” value [2] is given as 4-5%.

For `O=C1c2c(O)c(=O)ccn2N([C@@H]2c3ccccc3SCc3c2ccc(F)c3F)[C@@H]2COCCN12` [baloxavir, baloxavir acid], the “reduction of production of A/H3N2 infectious particles” value [3] was 3 log 10, the “reduction of production of A/H1N1 infectious particles” value [4] was 3 log 10 and the EC50 ([5]; Influenza A virus, A549) was 0.000144 µM. The “half-life (hepatic elimination)” value [6] was 50 to 90 h, the “increase of IC50 relative to the initial IC50” value [7] was 35 times and the “reduction of production of A/H1N1 infectious particles” value [8] was 4 log 10.

`COc1ccc([C@@H]2Sc3ccccc3N(CCN(C)C)C(=O)[C@@H]2OC(C)=O)cc1.Cl` [diltiazem] gave an EC50 [5] of 53.8 µM, an EC50 ([5]; Influenza A virus, A549) of 50.1 µM and an IC50 ([7]; Influenza A virus, H1N1, MDCK, read-out: median inhibitory concentration (IC50)) of 5 µM.

`NC(=O)c1nc(F)c[nH]c1=O` [favipiravir] gave an EC50 ([5]; Influenza A virus, A549) of 2.49 µM.

For `CCOC(=O)C1=C[C@@H](OC(CC)CC)[C@H](NC(C)=O)[C@@H](N)C1` [oseltamivir], the “median time to cessation of viral shedding” value [1] is given as 72 h.

For `NC(=O)c1ncn([C@@H]2O[C@H](CO)[C@@H](O)[C@H]2O)n1` [ribavirin], the “efficacy against flu virus” value [9] is given as “not effective”.
